Experiment [1] relates to HCT116 colon cancer cells. Nature of the experiment: HCT116 cell viability and proliferation assay (MTS). The settings on record: Homo sapiens, HCT-116, 72 hours incubation, mean of three independent experiments, read-out: HCT116 GI50 D3. The format is cell-based. The protocol: HCT116 colon cancer cells were obtained from ATCC (American Type Culture Collection), and maintained in Mc Coy's 5A medium containing 10% FBS, 3 mM glutamine and 1% penicillin/streptomycin. Cells were incubated at 37° C. in a humidified atmosphere containing 5% CO2.
Cell viability was assayed using the MTS technique in 96-well culture plates (CellTiter 96® Aqueous Non-Radioactive Cell Proliferation Assay, Promega) according to the manufacturer's instructions. MTS (3-(4,5-dimethyl-thiazol-2-yl)-5-(3-carboxymethoxyphenyl)-2-(4-sulfophenyl)-2H-tetra-zolium) is a MTT-derived tetrazolium that is reduced in metabolically active cells into a soluble, cell-permeant formazan. The amount of formazan, detected by its absorbance at 492 nm is proportional to the number of living, metabolically active cells.
10^3 HCT116 cells were seeded per well. 24 hours later, the medium was changed and the cells treated in triplicate with the following concentrations of each compound: 10 μM-3.33 μM-1.11 μM-370 nM-123 nM-41 nM-14 nM and 5 nM. The compounds were diluted in 100% DMSO, whose final concentration on cells was kept at 0.5%.
Cells were incubated with the compounds for 72 hours, and their viability then assayed by the addition of MTS for 2 hours. Absorbance at 492 nm was measured directly from the 96-well culture plates. G150 (Growth Inhibition 50) concentrations for each compound were calculated using a sigmoidal variable slope fit (Prism 4.0, Graphpad Softwares). Values represent mean of three independent experiments.

For experiment [2], the system named is PC-3 prostate cancer cells. Kind of experiment: PC3 cell viability and proliferation assay (MTS). Type of experiment: cell-based. The following applies: Homo sapiens, PC-3, 72 hours incubation, mean of three independent experiments, read-out: PC3 GI50 D3. As to the method: PC-3 prostate cancer cells were obtained from ATCC, and maintained in F-12K medium containing 7% FBS and 1% penicillin/streptomycin. Cells were incubated at 37° C. in a humidified atmosphere containing 5% CO2.
Cell viability was assayed using the MTS technique in 96-well culture plates (CellTiter 96® Aqueous Non-Radioactive Cell Proliferation Assay, Promega) according to the manufacturer's instructions. MTS (3-(4,5-dimethyl-thiazol-2-yl)-5-(3-carboxymethoxyphenyl)-2-(4-sulfophenyl)-2H-tetrazolium) is a MTT-derived tetrazolium that is reduced in metabolically active cells into a soluble, cell-permeant formazan. The amount of formazan, detected by its absorbance at 492 nm is proportional to the number of living, metabolically active cells.
2×10^3 PC3 cells were seeded per well. 24 hours later, the medium was changed and the cells treated in triplicate with the following concentrations of each compound: 10 μM-3.33 μM-1.11 μM-370 nM-123 nM-41 nM-14 nM and 5 nM. The compounds were diluted in 100% DMSO, whose final concentration on cells was kept at 0.5%.
Cells were incubated with the compounds for 72 hours, and their viability then assayed by the addition of MTS for 2 hours. Absorbance at 492 nm was measured directly from the 96-well culture plates. GI50 (Growth Inhibition 50) concentrations for each compound were calculated using a sigmoidal variable slope fit (Prism 4.0, Graphpad Softwares). Values represent mean of three independent experiments.

Another experiment has as its target T1, USP7 (Homo sapiens, UniProt Q93009).
T1 construct: His tag (pFastBac-HT vector) (N); made in house; host or cells: Sf9 or High Five insect cells (baculovirus)
Nature of the experiment: USP7 activity assay. Type of experiment: biochemical. The settings on record: 400 nM Ub-AMC, 152 pM enzyme; pre-incubated 30 minutes at 25° C., 60 minutes at 37° C.; sigmoidal fit; read-out: USP 7. An excerpt:
The cDNA encoding USP7 was obtained by PCR amplification from placenta mRNA. USP7 cDNA was subcloned by PCR into a baculovirus expression vector (pFastBac-HT; Invitrogen). A cDNA encoding a mutated USP7 was generated by mutagenic PCR. The corresponding protein encodes a cysteine to alanine substitution at residue 223. The sequences were ascertained by sequencing of the entire open reading frame. Bacmids encoding USP7 were generated following DH10bac transposition. The corresponding bacmids were transfected into insect cells (Sf9). Viruses were recovered from culture supernatant and amplified twice. Insect cells (Sf9 or High Five; lnvitrogen) were infected for 72 hours. Total cell lysates were harvested and lyzed in lysis buffer (Tris HCl 50 mM pH 7.6; 0.75 % NP40; 500 mM NaCl; 10% glycerol; 1 mM DTT; 10 mM imidazole; Protease Inhibitor Cocktail; AEBSF 20 μg.ml^−1; Aprotinin 10 μg.ml^−1). Proteins were affinity purified on metal affinity resins (Talon Metal affinity resin; BD Biosciences). Bound materials were extensively washed in wash buffer (50 mM Sodium Phosphate pH 7.0; 300 mM NaCl; 10 mM imidazole; 0.5% Triton X-100; 10% glycerol) and eluted from the resin in 250 mM imidazole-containing wash buffer. Proteins were dialyzed in dialysis buffer (Tris HCl pH 7.6 20 mM; NaCl 200 mM; DTT 1 mM; EDTA 1 mM; 10% Glycerol). Proteins purifications were analyzed on 4-12% NuPAGE (Invitrogen).
USP7 was diluted in USP buffer (50 mM Tris HCl; 0.5 mM EDTA; 5 mM DTT; 0.01 % Triton X-100; Bovine Serum Albumin 0.05 mg.ml^−1 pH 7.6). Compounds stocks (100 mM) were stored at −20° C. in DMSO. Compounds were tested at the following final concentrations: 100 μM; 33.3 μM; 11.1 μM; 3.7 μM; 1.23 μM; 412 nM; 137 nM; 45.7 nM; 15.2 nM; 5 nM.
(§1) Reactions were performed as duplicates in Black LJL 96 well plates (HE microplates; Molecular Devices; 20 μl final reaction volume). The substrate concentration for USP7 was 400 nM Ub-AMC (Chem. Biol., 2003, 10, p. 837-846) (Boston Biochem). The concentrations of the enzyme (USP7) in specificity assays was 152 pM. The concentrations were determined in order to perform specificity assays under initial velocities at fixed substrate concentration. Compounds were pre-incubated with enzymes for 30 minutes at 25° C. Reactions were initiated by addition of substrate to the plates containing the enzymes (+/− compounds) diluted in assay buffer. Reactions were incubated for 60 minutes at 37° C. Reactions were stopped by adding acetic acid (100 mM final). Readings were performed on a Pherastar Fluorescent Reader (BMG). λ Emission 380 nm; λ Excitation=460 nm. Data (mean values +/− standard deviation) were analyzed as % of control (no compound) and plotted as percentage versus the Log of the compound concentration using GraphPad (Prism). Data were fitted to a sigmoidal model (variable slope).

The target of the next experiment is T2, USP5 (Homo sapiens, UniProt P45974).
T2 sequence (P45974 1-858): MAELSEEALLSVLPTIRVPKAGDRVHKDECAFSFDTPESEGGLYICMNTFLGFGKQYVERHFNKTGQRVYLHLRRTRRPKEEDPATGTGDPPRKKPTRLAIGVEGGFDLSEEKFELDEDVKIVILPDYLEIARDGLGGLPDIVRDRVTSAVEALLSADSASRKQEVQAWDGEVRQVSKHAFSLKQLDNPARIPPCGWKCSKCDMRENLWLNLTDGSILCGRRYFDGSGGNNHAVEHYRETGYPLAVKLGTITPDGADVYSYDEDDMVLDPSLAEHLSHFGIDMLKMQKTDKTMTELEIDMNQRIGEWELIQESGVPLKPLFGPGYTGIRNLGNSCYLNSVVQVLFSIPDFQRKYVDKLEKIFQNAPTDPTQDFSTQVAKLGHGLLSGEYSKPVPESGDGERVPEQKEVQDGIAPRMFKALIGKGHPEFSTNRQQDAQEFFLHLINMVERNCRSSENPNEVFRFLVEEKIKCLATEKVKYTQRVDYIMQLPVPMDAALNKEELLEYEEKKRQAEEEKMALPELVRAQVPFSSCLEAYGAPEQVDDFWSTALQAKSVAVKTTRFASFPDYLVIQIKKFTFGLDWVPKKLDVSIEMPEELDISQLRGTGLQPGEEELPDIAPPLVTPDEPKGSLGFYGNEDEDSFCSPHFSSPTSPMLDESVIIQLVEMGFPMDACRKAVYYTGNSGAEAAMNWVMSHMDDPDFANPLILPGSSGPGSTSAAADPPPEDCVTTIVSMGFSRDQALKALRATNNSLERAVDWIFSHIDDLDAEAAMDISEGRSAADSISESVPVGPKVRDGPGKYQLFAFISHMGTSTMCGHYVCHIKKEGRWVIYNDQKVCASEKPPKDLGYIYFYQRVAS
Nature of the experiment: USP5 activity assay. The format is biochemical. The following applies: 400 nM Ub-AMC, 300 pM enzyme; pre-incubated 30 minutes at 25° C., 60 minutes at 37° C.; sigmoidal fit; read-out: USP 5. As to the method:
USP5 was diluted in USP buffer (50 mM Tris HCl; 0.5 mM EDTA; 5 mM DTT; 0.01% Triton X-100; Bovine Serum Albumin 0.05 mg.ml^−1 pH 7.6). Compounds stocks (100 mM) were stored at -20° C. in DMSO.
as §1, with “USP5” for “USP7”, “Ub-AMC” for “Ub-AMC (Chem. Biol., 2003, 10, p. 837-846)”, “(USP5)” for “(USP7)”, “300” for “152”

As usually defined, the GI50 is the concentration giving 50% growth inhibition.

Some results are limits rather than exact numbers.

T1 sequence (Q93009 whole entry): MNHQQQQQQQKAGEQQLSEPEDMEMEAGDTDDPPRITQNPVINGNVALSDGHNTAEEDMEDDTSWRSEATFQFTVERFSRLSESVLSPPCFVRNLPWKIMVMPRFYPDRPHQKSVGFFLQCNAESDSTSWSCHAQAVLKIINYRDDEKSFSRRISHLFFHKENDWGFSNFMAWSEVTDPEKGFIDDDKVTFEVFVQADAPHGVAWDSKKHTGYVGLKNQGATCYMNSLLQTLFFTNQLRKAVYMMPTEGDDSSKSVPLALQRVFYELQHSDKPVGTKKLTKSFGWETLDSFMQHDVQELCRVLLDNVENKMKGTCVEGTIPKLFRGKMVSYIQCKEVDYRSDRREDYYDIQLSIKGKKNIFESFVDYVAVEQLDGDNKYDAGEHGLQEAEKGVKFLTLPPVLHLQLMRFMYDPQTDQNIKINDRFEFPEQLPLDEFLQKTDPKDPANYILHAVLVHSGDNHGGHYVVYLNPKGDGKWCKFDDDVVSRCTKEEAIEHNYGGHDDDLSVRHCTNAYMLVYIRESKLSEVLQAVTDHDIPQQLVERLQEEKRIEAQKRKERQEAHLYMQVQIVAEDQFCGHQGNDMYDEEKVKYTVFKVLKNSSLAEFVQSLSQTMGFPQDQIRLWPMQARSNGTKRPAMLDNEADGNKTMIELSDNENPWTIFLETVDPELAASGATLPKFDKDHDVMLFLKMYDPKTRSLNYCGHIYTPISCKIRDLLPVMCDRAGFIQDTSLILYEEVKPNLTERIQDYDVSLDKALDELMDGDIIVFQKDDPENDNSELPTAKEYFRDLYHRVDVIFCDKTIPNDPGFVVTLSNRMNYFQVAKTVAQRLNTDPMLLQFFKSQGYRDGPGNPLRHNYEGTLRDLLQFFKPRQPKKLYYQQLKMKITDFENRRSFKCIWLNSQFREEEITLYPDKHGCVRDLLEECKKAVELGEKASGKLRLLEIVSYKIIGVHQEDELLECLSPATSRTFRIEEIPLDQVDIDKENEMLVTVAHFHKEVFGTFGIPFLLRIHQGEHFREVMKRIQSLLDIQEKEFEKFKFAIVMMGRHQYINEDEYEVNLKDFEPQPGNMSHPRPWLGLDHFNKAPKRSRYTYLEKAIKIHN

On to `CCCc1nnc2nc3c(nn12)C(=O)c1ccccc1-3` [Example 1e/A, 1-Propyl-2,3,4,10,10a-pentaaza-cyclopenta[b]fluoren-9-one], for which the GI50 in experiment [1] turned out to be 3100 nM; in experiment [2], 4200 nM. At USP7, the IC50 is > 100000 nM.

For the compound `CC(C)Cc1nnc2nc3c(nn12)C(=O)c1ccccc1-3` [Example 1g/A, 1-Isobutyl-2,3,4,10,10a-pentaaza-cyclopenta[b]fluoren-9-one], the GI50 was 3000 nM in experiment [1] and 4000 nM in experiment [2]. In addition, the IC50 on USP7 is > 100000 nM.

Consider `COCc1nnc2nc3c(nn12)C(=O)c1ccccc1-3` [Example 1i/A, 1-Methoxymethyl-2,3,4,10,10a-pentaaza-cyclopenta[b]fluoren-9-one], for which the GI50 in experiment [1] was 1280 nM; in experiment [2], 1750 nM. At USP7, the IC50 is > 100000 nM.

`O=C1c2ccccc2-c2nc3nnc(C4CC4)n3nc21` [Example 1j/A, 1-Cyclopropyl-2,3,4,10,10a-pentaaza-cyclopenta[b]fluoren-9-one]: at USP5, the IC50 came out at 3100 nM.

For `O=C1c2ccccc2-c2nn3c(C4CC4)nnc3nc21` [Example 1j/B, 3-Cyclopropyl-1,2,3a,4,10-pentaaza-cyclopenta[b]fluoren-9-one], the concentration for 50% growth inhibition (GI50) is 160 nM in experiment [1] and 107 nM in experiment [2]. The IC50 at USP5 worked out at 317 nM.

Take `O=C1c2ccccc2-c2nc3nnc(Cc4ccccc4)n3nc21` [Example 1k/A, 1-Benzyl-2,3,4,10,10a-pentaaza-cyclopenta[b]fluoren-9-one]: the IC50 at USP5 is 34800 nM.

With `O=C1c2ccccc2-c2nn3c(Cc4ccccc4)nnc3nc21` [Example 1k/B, 3-Benzyl-1,2,3a,4,10-pentaaza-cyclopenta[b]fluoren-9-one], the GI50 in experiment [1] came out at 149 nM; in experiment [2], 235 nM. In addition, the IC50 at USP5 was 206 nM.

With `O=C1c2ccccc2-c2nc3nn(Cc4ccccc4)nc3nc21` [Example 4b, 2-Benzyl-2H-1,2,3,4,10-pentaaza-cyclopenta[b]fluoren-9-one], the IC50 on USP5 and on USP7 was > 100000 nM each time.
